Assay [1] in a line: Inhibitory concentration against human p21 […] cell (p21+/+) proliferation.
Assay [2] is described as follows: Inhibitory concentration against human p21 deficient cell (p21-/-) proliferation.
Assay [3] in a line: Inhibitory concentration against human p21 proficient cell (p21+/+) proliferation.

The structures appear in SMILES notation.

Regarding `O=C(c1cccs1)c1cnn2c(-c3cccc(NC(=O)C4CC4)c3)ccnc12`, inhibition in assay [1] was half-maximal at 12 µM (IC50).

As for `COc1cc(-c2nc3sc4c(c3c(=O)[nH]2)CCCC4)cc(OC)c1OC`, in assay [1], the IC50 is over 20 µM.

With `COc1ccc(-c2nc3sc4c(c3c(=O)[nH]2)CCCC4)cc1OC`, the IC50 in assay [2] and in assay [3] was over 20 µM throughout.
